# Source: patent publication US9822110B2, “Sulfonamide derivative and pharmaceutical use thereof” (EA Pharma Co., Ltd., priority 2013, dated 2017)
# Biological target: T1, MAdCAM-1/α4β7 integrin (Homo sapiens, UniProt P13612+P26010)
# T1 construct: a human B-cell line known to express α4β7 integrin; endogenous in cells; host or cells: RPMI-8866 (human B-cell line)
# T1 sequence (P13612 34-1032): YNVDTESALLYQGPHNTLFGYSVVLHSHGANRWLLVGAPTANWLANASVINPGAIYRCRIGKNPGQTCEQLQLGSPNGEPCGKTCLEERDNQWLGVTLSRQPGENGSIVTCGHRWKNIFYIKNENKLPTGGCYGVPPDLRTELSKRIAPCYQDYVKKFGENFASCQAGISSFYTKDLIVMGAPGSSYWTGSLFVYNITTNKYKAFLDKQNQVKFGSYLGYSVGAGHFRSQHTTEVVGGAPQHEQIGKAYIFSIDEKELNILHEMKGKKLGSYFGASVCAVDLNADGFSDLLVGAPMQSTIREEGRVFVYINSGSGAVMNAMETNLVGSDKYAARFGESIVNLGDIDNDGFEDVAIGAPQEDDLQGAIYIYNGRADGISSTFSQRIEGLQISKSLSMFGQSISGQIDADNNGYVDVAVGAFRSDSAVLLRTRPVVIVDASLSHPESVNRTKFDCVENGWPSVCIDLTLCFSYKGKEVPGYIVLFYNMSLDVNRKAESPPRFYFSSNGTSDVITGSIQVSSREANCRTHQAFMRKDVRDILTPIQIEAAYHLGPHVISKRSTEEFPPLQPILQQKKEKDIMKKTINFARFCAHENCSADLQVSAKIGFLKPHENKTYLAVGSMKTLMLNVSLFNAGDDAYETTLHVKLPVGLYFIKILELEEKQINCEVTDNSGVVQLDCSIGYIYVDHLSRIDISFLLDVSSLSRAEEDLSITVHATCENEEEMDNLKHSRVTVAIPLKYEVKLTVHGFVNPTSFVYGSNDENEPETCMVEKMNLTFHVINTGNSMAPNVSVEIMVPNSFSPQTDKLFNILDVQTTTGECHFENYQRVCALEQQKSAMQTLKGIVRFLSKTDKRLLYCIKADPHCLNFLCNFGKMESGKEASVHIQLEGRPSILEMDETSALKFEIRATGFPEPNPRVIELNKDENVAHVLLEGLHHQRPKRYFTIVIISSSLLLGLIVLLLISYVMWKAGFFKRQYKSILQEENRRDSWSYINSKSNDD
# T1 sequence (P26010 20-798): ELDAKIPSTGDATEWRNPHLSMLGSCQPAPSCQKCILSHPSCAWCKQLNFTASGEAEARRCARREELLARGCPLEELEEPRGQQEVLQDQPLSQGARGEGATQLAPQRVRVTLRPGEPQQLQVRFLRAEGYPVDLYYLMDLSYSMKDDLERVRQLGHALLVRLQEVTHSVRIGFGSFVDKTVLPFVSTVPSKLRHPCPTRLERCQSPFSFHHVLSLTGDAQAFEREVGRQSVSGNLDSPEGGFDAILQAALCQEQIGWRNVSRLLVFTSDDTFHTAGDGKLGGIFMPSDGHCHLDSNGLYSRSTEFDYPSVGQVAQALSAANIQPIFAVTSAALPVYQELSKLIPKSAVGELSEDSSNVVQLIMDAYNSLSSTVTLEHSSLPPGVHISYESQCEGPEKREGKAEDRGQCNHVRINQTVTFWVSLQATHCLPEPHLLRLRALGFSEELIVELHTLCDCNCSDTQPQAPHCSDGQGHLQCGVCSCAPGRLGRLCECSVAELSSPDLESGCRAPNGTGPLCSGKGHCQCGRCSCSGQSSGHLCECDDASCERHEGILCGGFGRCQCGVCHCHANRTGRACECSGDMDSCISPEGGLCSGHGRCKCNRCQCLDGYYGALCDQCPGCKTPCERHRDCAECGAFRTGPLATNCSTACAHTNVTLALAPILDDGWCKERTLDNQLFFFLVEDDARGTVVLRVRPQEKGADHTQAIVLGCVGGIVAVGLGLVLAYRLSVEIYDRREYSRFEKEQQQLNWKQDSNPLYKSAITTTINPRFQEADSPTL
# Assay: Evaluation test (1) for MAdCAM-1/α4β7 integrin binding inhibitory activity in the presence of serum (RPMI-8866 cell binding to MAdCAM-1/Fc)
# Format: cell-based
# Conditions: RPMI-8866 cells, recombinant mouse MAdCAM-1/Fc, human serum at final concentration of 50%; read-out: α4β7 Serum Activity rank when α4β7 serum was added
# Procedure: The selectivity was determined by dividing the IC50 value in the evaluation test for VCAM-1/α4β1 integrin binding inhibitory activity by the IC50 value in the evaluation test for MAdCAM-1/α4β7 integrin binding inhibitory activity. • (3) Evaluation Test (1) for MAdCAM-1/α4β7 Integrin Binding Inhibitory Activity in the Presence of Serum
# The ability of test substances to inhibit the binding of RPMI-8866 cell line, a human B-cell line known to express α4β7 integrin, to MAdCAM-1 was examined.
# A 96-well microtiter plate was coated overnight at 4° C. with a recombinant mouse MAdCAM-1/Fc (R&D systems) solution diluted with the buffer A (carbonate buffer, pH 9.6). After washing once with PBS, 150 μL/well of Block Ace (manufactured by Snow Brand Milk Products Co., Ltd.) was added, and it was incubated at room temperature for 2 hours. After removal, it was washed once with PBS.
# 100 μL of each of test substances and RPMI-8866 cells diluted with a binding buffer solution (DMEM containing 40 mM HEPES, 0.2% BSA, and 4 mM MnCl2) to various concentrations was added to the plate coated with MAdCAM-1/Fc, so that human serum was contained at a final concentration of 50%, and it was incubated at 30° C. for 15 minutes to 60 minutes. After the cells were bound to the wells, unbound cells were removed by washing with PBS. 50 μL/well of the buffer solution C (PBS containing 1.5% Triton X-100) was added to the plate to dissolve the bound RPMI-8866 cells. 30 μL of substrate buffer (Promega, CytoTox 96 Non-Radioactive Cytotoxicity Assay) was added to 30 μL of a cell lysate to allow a reaction for 30 minutes at room temperature in a dark place. 30 μL of stop solution (Promega, CytoTox 96 Non-Radioactive Cytotoxicity Assay) was added thereto to determine the absorbance at 490 nm using a plate reader. The absorbance was obtained herein by detecting the activity of lactate dehydrogenase (LDH) eluted in a supernatant of each well, that is, the absorbance is proportional to the number of RPMI-8866 cells remaining on the plate by being bound to MAdCAM-1. The test was duplicated, and the cell binding rate at various concentrations with the absorbance of the well containing no test substance being taken as 100% was determined, to calculate the concentration IC50 at which 50% of binding was inhibited.
row,IC50,Compound
1,> 200 nM,"COc1cc2c(=O)n(-c3ccc(C[C@H](NC(=O)c4cc(F)c(NS(=O)(=O)c5ccc(-c6cnc(COC(C)C)nc6)cc5)cc4F)C(=O)O)nc3)c(=O)n(C)c2cn1 [Example 41, (2S)-2-[[2,5-Difluoro-4-[[4-[2-(isopropoxymethyl)pyrimidin-5-yl]phenyl]sulfonylamino]benzoyl]amino]-3-[5-(6-methoxy-1-methyl-2,4-dioxo-pyrido[3,4-d]pyrimidin-3-yl)-2-pyridyl]propanoic acid]"
2,50 to 200 nM,"CC(C)OCc1ncc(-c2ccc(S(=O)(=O)Nc3cc(F)c(C(=O)N[C@@H](Cc4ccc(-n5c(=O)ccn(C)c5=O)cc4)C(=O)O)cc3F)cc2)cn1 [Example 42, (2S)-2-[[2,5-Difluoro-4-[[4-[2-(isopropoxymethyl)pyrimidin-5-yl]phenyl]sulfonylamino]benzoyl]amino]-3-[4-(3-methyl-2,6-dioxo-pyrimidin-1-yl)phenyl]propanoic acid]"
3,> 200 nM,"CC(C)OCc1ncc(-c2ccc(S(=O)(=O)Nc3cc(F)c(C(=O)N[C@@H](Cc4ccc(-n5c(=O)c6cncnc6n(C)c5=O)cn4)C(=O)O)cc3F)cc2)cn1 [Example 43, (2S)-2-[[2,5-Difluoro-4-[[4-[2-(isopropoxymethyl)pyrimidin-5-yl]phenyl]sulfonylamino]benzoyl]amino]-3-[5-(1-methyl-2,4-dioxo-pyrimido[4,5-d]pyrimidin-3-yl)-2-pyridyl]propanoic acid]"
4,50 to 200 nM,"CC(C)OCc1ncc(-c2ccc(S(=O)(=O)Nc3cc(F)c(C(=O)N[C@@H](Cc4ccc(-n5c(=O)cc(C(F)(F)F)n(C)c5=O)cc4)C(=O)O)cc3F)cc2)cn1 [Example 44, (2S)-2-[[2,5-Difluoro-4-[[4-[2-(isopropoxymethyl)pyrimidin-5-yl]phenyl]sulfonylamino]benzoyl]amino]-3-[4-[3-methyl-2,6-dioxo-4-(trifluoromethyl)pyrimidin-1-yl]phenyl]propanoic acid]"
5,10 to 50 nM,"CCc1ncc(-c2ccc(S(=O)(=O)Nc3c(F)c(F)c(C(=O)N[C@@H](Cc4ccc(-c5c(C)n(C)c(=O)n(C)c5=O)cc4)C(=O)O)c(F)c3F)cc2)cn1 [Example 45, (2S)-2-[[4-[[4-(2-Ethylpyrimidin-5-yl)phenyl]sulfonylamino]-2,3,5,6-tetrafluoro-benzoyl]amino]-3-[4-(1,3,4-trimethyl-2,6-dioxo-pyrimidin-5-yl)phenyl]propanoic acid]"
6,> 200 nM,"Cc1cc(-c2ccccn2)ccc1S(=O)(=O)Nc1ccc(C(=O)N[C@@H](Cc2ccc(-c3c(C)n(C)c(=O)n(C)c3=O)cc2)C(=O)O)c(F)c1 [Example 46, (2S)-2-[[2-Fluoro-4-[[2-methyl-4-(2-pyridyl)phenyl]sulfonylamino]benzoyl]amino]-3-[4-(1,3,4-trimethyl-2,6-dioxo-pyrimidin-5-yl)phenyl]propanoic acid]"
7,10 to 50 nM,Cc1c(-c2ccc(C[C@H](NC(=O)c3c(F)cc(NS(=O)(=O)c4ccc(C(=O)NC5CC5)cc4)cc3F)C(=O)O)cc2)c(=O)n(C)c(=O)n1C [Example 47]
8,10 to 50 nM,"COCc1ncc(-c2ccc(S(=O)(=O)Nc3cc(F)c(C(=O)N[C@@H](Cc4ccc(-n5c(=O)c6ccncc6n(C)c5=O)nc4)C(=O)O)cc3F)cc2)cn1 [Example 51, (2S)-2-[[2,5-Difluoro-4-[[4-[2-(methoxymethyl)pyrimidin-5-yl]phenyl]sulfonylamino]benzoyl]amino]-3-[6-(1-methyl-2,4-dioxo-pyrido[3,4-d]pyrimidin-3-yl)-3-pyridyl]propanoic acid]"
9,10 to 50 nM,CC(C)OCc1ncc(-c2ccc(S(=O)(=O)Nc3cc(F)c(C(=O)N[C@@H](Cc4ccc(-n5c(=O)c6ccncc6n(C)c5=O)cc4)C(=O)O)cc3F)cc2)cn1 [Example 85]
10,10 to 50 nM,"Cc1c(-c2ccc(C[C@H](NC(=O)c3cc(F)c(NS(=O)(=O)c4ccc(-c5cnc(C6CCOCC6)nc5)cc4)cc3F)C(=O)O)cc2)c(=O)n(C)c(=O)n1C [Example 86, (2S)-2-[[2,5-Difluoro-4-[[4-(2-tetrahydropyran-4-ylpyrimidin-5-yl)phenyl]sulfonylamino]benzoyl]amino]-3-[4-(1,3,4-trimethyl-2,6-dioxopyrimidin-5-yl)phenyl]propanoic acid]"
